Measurements published in patent publication US9598414B2, “Substituted benzo[5,6]azepino[3,2,1-hi]pyrido[4,3-b]indoles and substituted benzo[6,7][1,4]oxazepino[2,3,4-hi]pyrido[4,3-b]indoles for treating CNS disorders” (Daya Drug Discoveries, Inc., priority 2013, dated 2017).

Assays:
[1] = molecular target: Muscarinic M5 (Homo sapiens, UniProt P08912); assay: Receptor binding, M5
[2] = molecular target: Serotonin 5-HT2A (Homo sapiens, UniProt P28223); assay: Receptor binding, 5-HT2A
[3] = molecular target: Serotonin 5-HT5A (Homo sapiens, UniProt P47898); assay: Receptor binding, 5-HT5A
Serotonin 5-HT5A, sequence (P47898 whole entry): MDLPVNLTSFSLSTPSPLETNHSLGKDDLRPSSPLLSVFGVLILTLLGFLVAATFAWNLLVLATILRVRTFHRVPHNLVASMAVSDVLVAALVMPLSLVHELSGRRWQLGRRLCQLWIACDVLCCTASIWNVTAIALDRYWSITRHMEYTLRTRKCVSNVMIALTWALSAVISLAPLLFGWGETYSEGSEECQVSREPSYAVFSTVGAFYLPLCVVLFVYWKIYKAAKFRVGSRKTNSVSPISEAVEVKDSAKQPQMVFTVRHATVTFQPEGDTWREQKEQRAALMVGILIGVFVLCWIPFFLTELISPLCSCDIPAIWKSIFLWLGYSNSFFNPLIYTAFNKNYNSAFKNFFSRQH

[4] = molecular target: β-Adrenergic β2 (Homo sapiens, UniProt P07550); assay: Receptor binding, β2
β-Adrenergic β2, sequence (P07550 whole entry): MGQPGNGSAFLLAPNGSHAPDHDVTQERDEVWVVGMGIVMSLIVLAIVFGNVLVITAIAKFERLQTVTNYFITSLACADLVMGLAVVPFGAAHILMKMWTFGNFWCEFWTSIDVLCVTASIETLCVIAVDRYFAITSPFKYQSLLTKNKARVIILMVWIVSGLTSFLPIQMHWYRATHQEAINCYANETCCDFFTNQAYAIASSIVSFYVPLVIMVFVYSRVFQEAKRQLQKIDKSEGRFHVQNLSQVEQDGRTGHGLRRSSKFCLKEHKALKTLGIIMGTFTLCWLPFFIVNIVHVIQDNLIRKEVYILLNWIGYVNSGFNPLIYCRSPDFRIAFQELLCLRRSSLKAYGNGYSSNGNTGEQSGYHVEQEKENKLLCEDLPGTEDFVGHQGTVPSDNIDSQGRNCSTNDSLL

[5] = molecular target: T1, α-Adrenergic α2A (Homo sapiens, UniProt P08913); assay: Receptor binding, α2A
T1 sequence (P08913 1-465): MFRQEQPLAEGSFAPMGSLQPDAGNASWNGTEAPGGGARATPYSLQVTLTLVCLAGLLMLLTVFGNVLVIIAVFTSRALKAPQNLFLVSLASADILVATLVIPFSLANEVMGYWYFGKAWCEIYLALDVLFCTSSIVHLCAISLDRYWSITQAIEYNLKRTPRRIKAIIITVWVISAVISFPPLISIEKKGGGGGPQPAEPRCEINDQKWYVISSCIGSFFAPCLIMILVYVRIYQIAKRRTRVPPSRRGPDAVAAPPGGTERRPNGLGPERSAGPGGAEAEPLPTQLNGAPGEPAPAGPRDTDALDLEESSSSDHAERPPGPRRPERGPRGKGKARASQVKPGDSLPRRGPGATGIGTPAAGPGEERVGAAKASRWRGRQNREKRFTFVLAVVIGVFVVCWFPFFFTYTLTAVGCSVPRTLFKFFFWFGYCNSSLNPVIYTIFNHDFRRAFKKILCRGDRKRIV

[6] = molecular target: β-Adrenergic β3 (Homo sapiens, UniProt P13945); assay: Receptor binding, β3
[7] = molecular target: T2, Serotonin 5-HT2C (Homo sapiens, UniProt P28335); assay: Receptor binding, 5-HT2C
T2 sequence (P28335 33-458): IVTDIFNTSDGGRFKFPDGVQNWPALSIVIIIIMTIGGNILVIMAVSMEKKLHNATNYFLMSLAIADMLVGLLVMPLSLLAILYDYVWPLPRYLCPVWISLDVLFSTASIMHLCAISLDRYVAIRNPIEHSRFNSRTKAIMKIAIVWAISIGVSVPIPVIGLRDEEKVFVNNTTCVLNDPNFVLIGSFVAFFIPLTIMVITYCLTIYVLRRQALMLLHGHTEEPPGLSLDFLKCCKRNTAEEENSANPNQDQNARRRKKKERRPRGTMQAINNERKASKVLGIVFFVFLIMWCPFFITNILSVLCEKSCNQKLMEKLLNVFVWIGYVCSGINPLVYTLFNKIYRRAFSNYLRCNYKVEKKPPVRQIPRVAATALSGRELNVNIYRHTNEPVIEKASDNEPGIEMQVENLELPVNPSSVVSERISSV

[8] = molecular target: T3, α-Adrenergic α2C (Homo sapiens, UniProt P18825); assay: Receptor binding, α2C
T3 sequence (P18825 1-462): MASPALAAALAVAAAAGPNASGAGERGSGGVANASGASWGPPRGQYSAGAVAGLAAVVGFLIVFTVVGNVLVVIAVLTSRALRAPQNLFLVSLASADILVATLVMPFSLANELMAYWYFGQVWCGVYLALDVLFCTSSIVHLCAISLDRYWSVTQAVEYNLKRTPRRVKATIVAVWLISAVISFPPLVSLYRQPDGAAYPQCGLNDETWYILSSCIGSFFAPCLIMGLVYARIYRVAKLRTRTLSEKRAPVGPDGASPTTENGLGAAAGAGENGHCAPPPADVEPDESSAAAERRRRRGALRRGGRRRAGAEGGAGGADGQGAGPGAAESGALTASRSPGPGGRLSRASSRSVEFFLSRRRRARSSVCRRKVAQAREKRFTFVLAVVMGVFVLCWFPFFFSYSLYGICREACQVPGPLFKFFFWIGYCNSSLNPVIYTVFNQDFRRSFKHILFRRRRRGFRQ

[9] = molecular target: Muscarinic M2 (Homo sapiens, UniProt P08172); assay: Receptor binding, M2
Muscarinic M2, sequence (P08172 whole entry): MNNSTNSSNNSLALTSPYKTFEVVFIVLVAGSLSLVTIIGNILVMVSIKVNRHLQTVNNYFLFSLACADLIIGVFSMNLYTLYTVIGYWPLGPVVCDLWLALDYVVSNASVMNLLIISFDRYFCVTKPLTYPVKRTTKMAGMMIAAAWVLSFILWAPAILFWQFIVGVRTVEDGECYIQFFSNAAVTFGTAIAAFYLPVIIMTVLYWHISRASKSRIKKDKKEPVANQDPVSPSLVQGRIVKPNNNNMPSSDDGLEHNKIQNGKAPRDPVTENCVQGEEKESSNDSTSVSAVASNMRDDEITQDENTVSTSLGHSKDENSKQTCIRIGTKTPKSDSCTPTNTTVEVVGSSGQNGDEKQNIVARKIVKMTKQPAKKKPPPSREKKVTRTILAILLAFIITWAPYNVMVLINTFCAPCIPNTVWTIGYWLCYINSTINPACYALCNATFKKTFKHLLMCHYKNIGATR

[10] = test system: dopamine receptors; assay: Receptor binding, dopamine receptors; conditions: any of the dopamine receptors, summary of Table 1
[11] = molecular target: Dopamine transporter (Homo sapiens, UniProt Q01959); assay: Receptor binding, dopamine transporter; conditions: Transporters: Dopamine
Dopamine transporter, sequence (Q01959 whole entry): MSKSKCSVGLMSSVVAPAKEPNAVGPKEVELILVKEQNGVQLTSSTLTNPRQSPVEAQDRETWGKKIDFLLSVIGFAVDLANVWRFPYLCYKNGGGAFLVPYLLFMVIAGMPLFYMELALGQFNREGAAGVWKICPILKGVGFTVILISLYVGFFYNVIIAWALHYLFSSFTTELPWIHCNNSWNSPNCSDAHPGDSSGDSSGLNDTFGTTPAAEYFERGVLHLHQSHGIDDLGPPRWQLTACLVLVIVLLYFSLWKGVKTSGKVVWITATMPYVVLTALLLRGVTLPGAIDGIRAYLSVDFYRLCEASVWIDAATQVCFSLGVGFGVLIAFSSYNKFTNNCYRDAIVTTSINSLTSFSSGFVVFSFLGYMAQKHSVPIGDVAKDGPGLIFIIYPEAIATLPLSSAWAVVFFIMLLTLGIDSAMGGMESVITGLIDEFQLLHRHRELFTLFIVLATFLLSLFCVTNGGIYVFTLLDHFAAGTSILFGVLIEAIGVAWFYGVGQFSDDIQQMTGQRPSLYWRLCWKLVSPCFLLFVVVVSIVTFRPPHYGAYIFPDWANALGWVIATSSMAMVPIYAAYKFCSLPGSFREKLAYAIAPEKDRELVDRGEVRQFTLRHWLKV

[12] = test system: mice (129SV/PAS background); assay: MDMA-induced motor behavior (locomotor activity); type: in vivo; conditions: FIG. 4
Procedure: In this in vivo study, locomotor activity was measured in a circular corridor with four infrared beams placed at every 90° (Imetronic, France). Counts were incremented by consecutive interruption of two adjacent beams (i.e. mice moving through one-quarter of the corridor). DDD-024 was tested in MDMA-induced motor behavior at 5, 10 and 20 mg/kg, ip, in mice (129SV/PAS background, 8 week old, Charles River Laboratories). The animals were injected with vehicle and individually placed in the activity box for 30 min during 3 days consecutively for habituation before experiments. Mice received vehicle or DDD-024 (5-20 mg/kg, i.p.) injection 30 min before MDMA injection (10 mg/kg).

[13] = molecular target: α-Adrenergic α1B (Homo sapiens, UniProt P35368); assay: Receptor binding, α1B
α-Adrenergic α1B, sequence (P35368 whole entry): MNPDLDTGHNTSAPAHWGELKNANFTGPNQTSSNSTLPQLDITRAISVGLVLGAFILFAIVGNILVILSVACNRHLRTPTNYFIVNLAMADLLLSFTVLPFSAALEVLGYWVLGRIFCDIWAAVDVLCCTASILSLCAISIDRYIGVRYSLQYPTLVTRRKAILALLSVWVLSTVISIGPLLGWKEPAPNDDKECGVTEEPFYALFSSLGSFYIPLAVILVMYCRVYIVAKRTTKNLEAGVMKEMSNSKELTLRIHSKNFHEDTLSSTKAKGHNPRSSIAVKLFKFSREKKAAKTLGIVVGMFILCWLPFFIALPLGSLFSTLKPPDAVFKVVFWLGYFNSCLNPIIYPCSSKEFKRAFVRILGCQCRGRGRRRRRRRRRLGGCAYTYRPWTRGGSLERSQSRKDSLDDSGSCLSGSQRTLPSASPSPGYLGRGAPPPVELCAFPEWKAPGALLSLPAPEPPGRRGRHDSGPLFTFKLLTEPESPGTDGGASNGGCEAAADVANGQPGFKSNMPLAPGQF

[14] = molecular target: Dopamine D5 (Homo sapiens, UniProt P21918); assay: Receptor binding, D5
[15] = molecular target: Opioid μ (Homo sapiens, UniProt P35372); assay: Receptor binding, opioid μ
Opioid μ, sequence (P35372 whole entry): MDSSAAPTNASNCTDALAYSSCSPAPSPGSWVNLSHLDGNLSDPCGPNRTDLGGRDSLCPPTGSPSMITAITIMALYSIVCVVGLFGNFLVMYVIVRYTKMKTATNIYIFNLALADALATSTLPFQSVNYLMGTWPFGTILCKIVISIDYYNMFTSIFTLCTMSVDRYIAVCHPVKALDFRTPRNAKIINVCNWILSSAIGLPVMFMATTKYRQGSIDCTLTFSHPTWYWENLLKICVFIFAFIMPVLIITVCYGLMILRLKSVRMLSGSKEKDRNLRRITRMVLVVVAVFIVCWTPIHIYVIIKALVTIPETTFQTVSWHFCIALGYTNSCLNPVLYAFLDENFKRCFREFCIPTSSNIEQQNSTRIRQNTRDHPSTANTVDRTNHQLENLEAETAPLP

[16] = molecular target: Histamine H2 (Homo sapiens, UniProt P25021); assay: Receptor binding, H2
Histamine H2, sequence (P25021 whole entry): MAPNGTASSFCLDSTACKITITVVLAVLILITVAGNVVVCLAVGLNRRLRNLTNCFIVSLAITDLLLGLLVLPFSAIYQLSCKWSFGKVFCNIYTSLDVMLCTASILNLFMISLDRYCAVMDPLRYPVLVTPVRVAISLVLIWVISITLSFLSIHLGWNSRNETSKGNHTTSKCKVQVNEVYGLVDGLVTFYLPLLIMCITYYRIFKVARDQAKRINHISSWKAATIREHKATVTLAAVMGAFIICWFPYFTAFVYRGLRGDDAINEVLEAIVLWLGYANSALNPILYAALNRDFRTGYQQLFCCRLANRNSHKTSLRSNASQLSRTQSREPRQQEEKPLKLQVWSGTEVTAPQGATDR

[17] = molecular target: Dopamine D1 (Homo sapiens, UniProt P21728); assay: Receptor binding, D1
Dopamine D1, sequence (P21728 whole entry): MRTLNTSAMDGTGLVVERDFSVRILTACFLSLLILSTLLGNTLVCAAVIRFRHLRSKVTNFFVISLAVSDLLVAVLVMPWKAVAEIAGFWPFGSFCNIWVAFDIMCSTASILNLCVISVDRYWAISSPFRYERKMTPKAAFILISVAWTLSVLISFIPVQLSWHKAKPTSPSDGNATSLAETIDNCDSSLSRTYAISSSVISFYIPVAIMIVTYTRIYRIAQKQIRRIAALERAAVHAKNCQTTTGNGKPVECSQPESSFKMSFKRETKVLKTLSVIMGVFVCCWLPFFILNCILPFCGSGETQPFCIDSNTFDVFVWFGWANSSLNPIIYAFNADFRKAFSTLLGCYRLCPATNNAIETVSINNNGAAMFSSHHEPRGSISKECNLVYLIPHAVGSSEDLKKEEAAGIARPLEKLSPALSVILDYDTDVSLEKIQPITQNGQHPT

[18] = molecular target: Muscarinic M4 (Homo sapiens, UniProt P08173); assay: Receptor binding, M4
Muscarinic M4, sequence (P08173 whole entry): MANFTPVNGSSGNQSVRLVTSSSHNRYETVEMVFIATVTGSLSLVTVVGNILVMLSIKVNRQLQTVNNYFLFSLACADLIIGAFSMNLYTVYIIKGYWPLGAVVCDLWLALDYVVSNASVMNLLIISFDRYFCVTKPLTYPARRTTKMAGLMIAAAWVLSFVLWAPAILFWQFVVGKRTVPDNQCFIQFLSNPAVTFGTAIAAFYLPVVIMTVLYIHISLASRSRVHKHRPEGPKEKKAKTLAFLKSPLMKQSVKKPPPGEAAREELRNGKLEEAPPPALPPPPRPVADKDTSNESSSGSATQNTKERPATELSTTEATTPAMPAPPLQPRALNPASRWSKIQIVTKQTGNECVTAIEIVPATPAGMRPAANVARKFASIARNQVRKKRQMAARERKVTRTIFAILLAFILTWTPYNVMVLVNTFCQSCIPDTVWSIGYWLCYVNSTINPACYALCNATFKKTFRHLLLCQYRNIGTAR

[19] = molecular target: Norepinephrine transporter (Homo sapiens, UniProt P23975); assay: Receptor binding, norepinephrine transporter; conditions: Transporters: Norepinephrine
Norepinephrine transporter, sequence (P23975 whole entry): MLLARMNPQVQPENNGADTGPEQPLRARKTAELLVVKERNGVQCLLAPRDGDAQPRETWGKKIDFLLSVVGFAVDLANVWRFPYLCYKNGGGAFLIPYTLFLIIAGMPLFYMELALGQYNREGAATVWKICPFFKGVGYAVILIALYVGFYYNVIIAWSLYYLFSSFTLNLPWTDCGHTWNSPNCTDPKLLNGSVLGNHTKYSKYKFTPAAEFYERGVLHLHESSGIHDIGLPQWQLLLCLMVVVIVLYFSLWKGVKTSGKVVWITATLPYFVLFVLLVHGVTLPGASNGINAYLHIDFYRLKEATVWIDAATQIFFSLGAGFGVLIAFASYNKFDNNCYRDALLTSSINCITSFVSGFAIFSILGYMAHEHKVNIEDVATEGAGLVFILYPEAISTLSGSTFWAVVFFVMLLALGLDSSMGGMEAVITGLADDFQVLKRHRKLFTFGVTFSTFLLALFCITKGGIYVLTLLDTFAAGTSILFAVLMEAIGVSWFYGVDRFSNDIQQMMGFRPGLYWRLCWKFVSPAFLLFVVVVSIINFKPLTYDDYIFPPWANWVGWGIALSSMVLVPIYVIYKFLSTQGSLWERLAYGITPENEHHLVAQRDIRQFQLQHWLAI

Q: Which results are given for `CN1CCc2c(c3cccc4c3n2Cc2ccccc2O4)C1` [Compound 13b]?
A: Ki [1]: > 10 µM; Ki [2]: 0.927 µM; Ki [3]: 1.91 µM; Ki [4]: > 10 µM; Ki [5]: 1.46 µM; Ki [6]: > 10 µM; Ki ([7]; 5-HT2C): 0.247 µM; binding, in words ([7]; HT2c, summary of Table 1): moderate binding; Ki [8]: 0.507 µM; Ki [9]: > 10 µM; binding, in words [10]: neither of the two compounds 13a and 13b binds significantly; Ki [11]: > 10 µM; increase in motor activity elicited by MDMA ([12]; 10 mg/kg i.p. 30 min before MDMA 10 mg/kg): partially; increase in motor activity elicited by MDMA ([12]; 20 mg/kg i.p. 30 min before MDMA 10 mg/kg): completely blocked; Ki [13]: > 10 µM; Ki [14]: > 10 µM; Ki [15]: > 10 µM; Ki [16]: 4.73 µM; Ki [17]: > 10 µM; Ki [18]: > 10 µM; Ki [19]: 1.95 µM
